Reference: patent US12441762B2, “Hepatitis c virus NS3/4A protease inhibitors” (priority 2019, dated 2025)

Tests used:
[1] = molecular target: T1, wild-type HCV NS3/4A protease (GT1a) (Hepatitis C virus genotype 1a, UniProt P27958, C1185S); test: biochemical; format: biochemical
T1 construct: His-tag (cleaved yes); made in house; host or cells: Escherichia coli BL21(DE3), PET28a vector
Protocol: (§1) The HCV GT1a NS3/4A protease gene described in the Bristol Myers Squibb patent was synthesized by GenScript and cloned into a PET28a expression vector. Cys159 was mutated to a serine residue to prevent disulfide bond formation and facilitate crystallization. The D168A gene was engineered using the site-directed mutagenesis protocol from Stratagene. Protein expression and purification were carried out as previously described.
(§2) Km constants for GT1 and D168A protease were previously determined. […] Inner filter effect corrections were applied to the initial velocities (Vo) at each substrate concentration. Vo versus substrate concentration graphs were globally fit to the Michaelis-Menten equation to obtain the Km value.
(§3) For each assay, 2 nM of NS3/4A protease (GT1a and D168A) was pre-incubated at room temperature for 1 h with increasing concentration of inhibitors in assay buffer (50 mM Tris, 5% glycerol, 10 mM DTT, 0.6 mM LDAO, and 4% dimethyl sulfoxide, pH 7.5). Inhibition assays were performed in non-binding surface 96-well black half-area plates (Corning) in a reaction volume of 60 μL. […] Three independent data sets were collected for each inhibitor with each protease construct.

[2] = molecular target: T2, HCV NS3/4A protease D168A variant (Hepatitis C virus genotype 1a, UniProt P27958, C1185S/D1194A); test: biochemical; format: biochemical
T2 construct: His-tag (cleaved yes); made in house; host or cells: Escherichia coli BL21(DE3), PET28a vector
Protocol: as §1, §2, §3

T2 sequence (P27958 1027-1208 C1185S/D1194A): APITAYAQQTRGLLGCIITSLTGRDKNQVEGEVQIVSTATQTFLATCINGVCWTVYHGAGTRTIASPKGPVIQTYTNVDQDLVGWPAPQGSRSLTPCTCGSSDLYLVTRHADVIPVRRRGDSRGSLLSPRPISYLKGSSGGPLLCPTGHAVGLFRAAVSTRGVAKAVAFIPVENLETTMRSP
T1 sequence (P27958 1027-1208 C1185S): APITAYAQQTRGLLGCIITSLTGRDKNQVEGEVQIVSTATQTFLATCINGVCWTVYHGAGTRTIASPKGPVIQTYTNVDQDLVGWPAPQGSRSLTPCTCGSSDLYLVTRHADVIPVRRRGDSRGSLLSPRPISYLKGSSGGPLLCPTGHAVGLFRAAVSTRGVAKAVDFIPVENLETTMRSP

SMILES | Ki [1] [nM] | Ki [2] [nM]
COc1ccc2nc(C)c(O[C@@H]3C[C@H]4C(=O)N[C@]5(C(=O)NS(=O)(=O)C6(C)CC6)C[C@H]5/C=C\CCCCC[C@H](NC(=O)OC(C)(C)C(F)(F)F)C(=O)N4C3)nc2c1 [AJ-71, 1,1,1-Trifluoro-2-methylpropan-2-yl ((2R,6S,13aS,14aR,16aS,Z)-2-((7-methoxy-3-methylquinoxalin-2-yl)oxy)-14a-(((1-methylcyclopropyl)sulfonyl)carbamoyl)-5,16-dioxo-1,2,3,5,6,7,8,9,10,11,13a,14,14a,15,16,16a-hexadecahydrocyclopropa[e]pyrrolo[1,2-a][1,4]diazacyclopentadecin-6-yl)carbamate] | 2.56 ± 0.44 | 39 ± 2.9
COc1ccc2nc(C(F)(F)F)c(O[C@@H]3C[C@H]4C(=O)N[C@]5(C(=O)NS(=O)(=O)C6(C)CC6)C[C@H]5/C=C\CCCCC[C@H](NC(=O)OC5CCC5)C(=O)N4C3)nc2c1 [NR01-95, Cyclobutyl ((2R,6S,13aS,14aR,16aS,Z)-2-((7-methoxy-3-(trifluoromethyl)quinoxalin-2-yl)oxy)-14a-(((1-methylcyclopropyl)sulfonyl)carbamoyl)-5,16-dioxo-1,2,3,5,6,7,8,9,10,11,13a,14,14a,15,16,16a-hexadecahydrocyclopropa[e]pyrrolo[1,2-a][1,4]diazacyclopentadecin-6-yl)carbamate] | 8.53 ± 0.87 | 29.5 ± 1.8
COc1ccc2nc(C)c(O[C@@H]3C[C@H]4C(=O)N[C@]5(C(=O)NS(=O)(=O)C6(C)CC6)C[C@H]5/C=C\CCCCC[C@H](NC(=O)O[C@@H](C)C(C)C)C(=O)N4C3)nc2c1 [NR01-99, (S)-3-Methylbutan-2-yl ((2R,6S,13aS,14aR,16aS,Z)-2-((7-methoxy-3-methylquinoxalin-2-yl)oxy)-14a-(((1-methylcyclopropyl)sulfonyl)carbamoyl)-5,16-dioxo-1,2,3,5,6,7,8,9,10,11,13a,14,14a,15,16,16a-hexadecahydrocyclopropa[e]pyrrolo[1,2-a][1,4]diazacyclopentadecin-6-yl)carbamate] | 1.91 ± 0.3 | 21.7 ± 2.3
COc1ccc2nc(C)c(O[C@@H]3C[C@H]4C(=O)N[C@]5(C(=O)NS(=O)(=O)C6(C)CC6)C[C@H]5/C=C\CCCCC[C@H](NC(=O)OCC5(C)CC5)C(=O)N4C3)nc2c1 [NR01-115, (1-Methylcyclopropyl)methyl ((2R,6S,13aS,14aR,16aS,Z)-2-((7-methoxy-3-methylquinoxalin-2-yl)oxy)-14a-(((1-methylcyclopropyl)sulfonyl)carbamoyl)-5,16-dioxo-1,2,3,5,6,7,8,9,10,11,13a,14,14a,15,16,16a-hexadecahydrocyclopropa[e]pyrrolo[1,2-a][1,4]diazacyclopentadecin-6-yl)carbamate] | 0.65 ± 0.2 | 21.6 ± 1.7
COc1ccc2nc(C(F)(F)F)c(O[C@@H]3C[C@H]4C(=O)N[C@]5(C(=O)NS(=O)(=O)C6(C)CC6)C[C@H]5/C=C\CCCCC[C@H](NC(=O)OCC5(C)CC5)C(=O)N4C3)nc2c1 [NR01-117, (1-Methylcyclopropyl)methyl ((2R,6S,13aS,14aR,16aS,Z)-2-((7-methoxy-3-(trifluoromethyl)quinoxalin-2-yl)oxy)-14a-(((1-methylcyclopropyl)sulfonyl)carbamoyl)-5,16-dioxo-1,2,3,5,6,7,8,9,10,11,13a,14,14a,15,16,16a-hexadecahydrocyclopropa[e]pyrrolo[1,2-a][1,4]diazacyclopentadecin-6-yl)carbamate] | 2.89 ± 0.19 | 18.6 ± 2
COc1ccc2nc(C)c(O[C@@H]3C[C@H]4C(=O)N[C@]5(C(=O)NS(=O)(=O)C6(C)CC6)C[C@H]5/C=C\CCCCC[C@H](NC(=O)O[C@H](C)C(C)C)C(=O)N4C3)nc2c1 [NR01-119, (R)-3-Methylbutan-2-yl ((2R,6S,13aS,14aR,16aS,Z)-2-((7-methoxy-3-methylquinoxalin-2-yl)oxy)-14a-(((1-methylcyclopropyl)sulfonyl)carbamoyl)-5,16-dioxo-1,2,3,5,6,7,8,9,10,11,13a,14,14a,15,16,16a-hexadecahydrocyclopropa[e]pyrrolo[1,2-a][1,4]diazacyclopentadecin-6-yl)carbamate] | 1.52 ± 0.02 | 23.9 ± 3.5
COc1ccc2nc(C(F)(F)F)c(O[C@@H]3C[C@H]4C(=O)N[C@]5(C(=O)NS(=O)(=O)C6(C)CC6)C[C@H]5/C=C\CCCCC[C@H](NC(=O)O[C@H](C)C(C)C)C(=O)N4C3)nc2c1 [NR01-121, (R)-3-Methylbutan-2-yl ((2R,6S,13aS,14aR,16aS,Z)-2-((7-methoxy-3-(trifluoromethyl)quinoxalin-2-yl)oxy)-14a-(((1-methylcyclopropyl)sulfonyl)carbamoyl)-5,16-dioxo-1,2,3,5,6,7,8,9,10,11,13a,14,14a,15,16,16a-hexadecahydrocyclopropa[e]pyrrolo[1,2-a][1,4]diazacyclopentadecin-6-yl)carbamate] | 2.96 ± 0.22 | 10.4 ± 0.9
COc1ccc2nc(C)c(O[C@@H]3C[C@H]4C(=O)N[C@]5(C(=O)NS(=O)(=O)C6(C)CC6)C[C@H]5/C=C\CCCCC[C@H](NC(=O)OC5CCC5)C(=O)N4C3)nc2c1 [NR01-127, Cyclobutyl ((2R,6S,13aS,14aR,16aS,Z)-2-((7-methoxy-3-methylquinoxalin-2-yl)oxy)-14a-(((1-methylcyclopropyl)sulfonyl)carbamoyl)-5,16-dioxo-1,2,3,5,6,7,8,9,10,11,13a,14,14a,15,16,16a-hexadecahydrocyclopropa[e]pyrrolo[1,2-a][1,4]diazacyclopentadecin-6-yl)carbamate] | 0.3 ± 0.2 | 52.4 ± 9
COc1ccc2nc(C(F)(F)F)c(O[C@@H]3C[C@H]4C(=O)N[C@]5(C(=O)NS(=O)(=O)C6(C)CC6)C[C@H]5/C=C\CCCCC[C@H](NC(=O)OC(C)(C)C(F)(F)F)C(=O)N4C3)nc2c1 [NR01-129, 1,1,1-Trifluoro-2-methylpropan-2-yl ((2R,6S,13aS,14aR,16aS,Z)-2-((7-methoxy-3-(trifluoromethyl)quinoxalin-2-yl)oxy)-14a-(((1-methylcyclopropyl)sulfonyl)carbamoyl)-5,16-dioxo-1,2,3,5,6,7,8,9,10,11,13a,14,14a,15,16,16a-hexadecahydrocyclopropa[e]pyrrolo[1,2-a][1,4]diazacyclopentadecin-6-yl)carbamate] | 3.6 ± 0.3 | 15.5 ± 1.8
COc1ccc2nc(C(F)(F)F)c(O[C@@H]3C[C@H]4C(=O)N[C@]5(C(=O)NS(=O)(=O)C6(C)CC6)C[C@H]5/C=C\CCCCC[C@H](NC(=O)O[C@H](C)C(F)(F)F)C(=O)N4C3)nc2c1 [NR01-147, (R)-1,1,1-Trifluoropropan-2-yl ((2R,6S,13aS,14aR,16aS,Z)-2-((7-methoxy-3-(trifluoromethyl)quinoxalin-2-yl)oxy)-14a-(((1-methylcyclopropyl)sulfonyl)carbamoyl)-5,16-dioxo-1,2,3,5,6,7,8,9,10,11,13a,14,14a,15,16,16a-hexadecahydrocyclopropa[e]pyrrolo[1,2-a][1,4]diazacyclopentadecin-6-yl)carbamate] | 2.8 ± 0.7 | 17 ± 2.4
